From patent publication US12343326B2, “Psychoactive medicines and their use for treating psychiatric and neurological conditions and disorders” (Transcend Therapeutics, Inc., priority 2021, dated 2025)
Like-named read-outs stand apart in the source and are kept apart here.

Experiments:
Assay in all cases: β-arrestin based GPCR screen (PathHunter / GPCRmax), agonist mode
Assay type in all cases: cell-based
Design in all cases: host or cells: PathHunter cell lines
168 GPCRs [1] = molecular target: 168 GPCRs (Homo sapiens, UniProt Q16602); conditions: Agonist
Protocol: (§1) For agonist determination, cells were incubated with sample to induce response. […] Vehicle concentration was 1%.

168 GPCRs [2] = molecular target: T1, 168 GPCRs (Homo sapiens, UniProt P24530); conditions: EDNRB
T1 sequence (P24530 27-442): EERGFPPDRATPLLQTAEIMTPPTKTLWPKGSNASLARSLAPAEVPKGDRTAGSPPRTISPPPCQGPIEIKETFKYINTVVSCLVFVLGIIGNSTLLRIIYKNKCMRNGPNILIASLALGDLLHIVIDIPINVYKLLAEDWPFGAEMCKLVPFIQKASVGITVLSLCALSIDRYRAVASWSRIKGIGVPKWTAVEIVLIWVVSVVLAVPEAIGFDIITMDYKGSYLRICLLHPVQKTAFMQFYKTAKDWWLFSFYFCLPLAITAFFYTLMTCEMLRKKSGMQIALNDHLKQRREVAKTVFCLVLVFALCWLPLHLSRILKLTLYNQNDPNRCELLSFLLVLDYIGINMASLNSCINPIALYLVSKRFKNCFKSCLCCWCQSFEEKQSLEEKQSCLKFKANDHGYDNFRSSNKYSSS
Protocol: as §1

168 GPCRs [3] = molecular target: 168 GPCRs (Homo sapiens, UniProt P43220); conditions: GLP1R
Protocol: as §1

168 GPCRs [4] = molecular target: 168 GPCRs (Homo sapiens, UniProt P08172); conditions: CHRM2, Agonist
Protocol: as §1

168 GPCRs [5] = molecular target: 168 GPCRs (Homo sapiens, UniProt Q96LB2)
Protocol: as §1

168 GPCRs [6] = molecular target: 168 GPCRs (Homo sapiens, UniProt P43119); conditions: PTGIR
Protocol: as §1

168 GPCRs [7] = molecular target: 168 GPCRs (Homo sapiens, UniProt P21728)
Protocol: as §1

168 GPCRs [8] = molecular target: 168 GPCRs (Homo sapiens, UniProt P34981); conditions: TRHR
Protocol: as §1

168 GPCRs [9] = molecular target: 168 GPCRs (Homo sapiens, UniProt P08913); conditions: ADRA2A, Agonist
Protocol: as §1

168 GPCRs [10] = molecular target: 168 GPCRs (Homo sapiens, UniProt P14416); conditions: DRD2L
Protocol: as §1

168 GPCRs [11] = molecular target: 168 GPCRs (Homo sapiens, UniProt O95838); conditions: GLP2R
Protocol: as §1

168 GPCRs [12] = molecular target: 168 GPCRs (Homo sapiens, UniProt P35414); conditions: AGTRL1, Agonist
Protocol: as §1

168 GPCRs [13] = molecular target: 168 GPCRs (Homo sapiens, UniProt P25105); conditions: PTAFR
Protocol: as §1

168 GPCRs [14] = molecular target: 168 GPCRs (Homo sapiens, UniProt Q15077)
Protocol: as §1

168 GPCRs [15] = molecular target: 168 GPCRs (Homo sapiens, UniProt P41586); conditions: ADCYAP1R1, Agonist
Protocol: as §1

168 GPCRs [16] = molecular target: 168 GPCRs (Homo sapiens, UniProt P21452)
Protocol: as §1

168 GPCRs [17] = molecular target: 168 GPCRs (Homo sapiens, UniProt Q9HC97)
Protocol: as §1

168 GPCRs [18] = molecular target: 168 GPCRs (Homo sapiens, UniProt P08908); conditions: HTR1A
Protocol: as §1

168 GPCRs [19] = molecular target: 168 GPCRs (Homo sapiens, UniProt Q8NFJ6)
Protocol: as §1

Chain of 168 GPCRs (Homo sapiens, UniProt Q16602) (Q16602 23-461): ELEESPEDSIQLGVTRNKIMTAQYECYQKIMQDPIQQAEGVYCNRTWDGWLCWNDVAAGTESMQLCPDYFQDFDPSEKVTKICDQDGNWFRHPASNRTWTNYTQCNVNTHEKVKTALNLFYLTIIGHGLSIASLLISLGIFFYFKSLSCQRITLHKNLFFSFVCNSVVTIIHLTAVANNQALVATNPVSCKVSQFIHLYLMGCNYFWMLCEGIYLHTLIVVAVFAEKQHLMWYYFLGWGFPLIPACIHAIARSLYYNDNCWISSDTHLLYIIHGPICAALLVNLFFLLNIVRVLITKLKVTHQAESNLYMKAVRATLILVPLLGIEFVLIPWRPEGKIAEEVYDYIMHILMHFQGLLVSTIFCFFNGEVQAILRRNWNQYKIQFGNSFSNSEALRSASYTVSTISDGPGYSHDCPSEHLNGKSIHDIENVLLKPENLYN
Chain of 168 GPCRs (Homo sapiens, UniProt P35414) (P35414 whole entry): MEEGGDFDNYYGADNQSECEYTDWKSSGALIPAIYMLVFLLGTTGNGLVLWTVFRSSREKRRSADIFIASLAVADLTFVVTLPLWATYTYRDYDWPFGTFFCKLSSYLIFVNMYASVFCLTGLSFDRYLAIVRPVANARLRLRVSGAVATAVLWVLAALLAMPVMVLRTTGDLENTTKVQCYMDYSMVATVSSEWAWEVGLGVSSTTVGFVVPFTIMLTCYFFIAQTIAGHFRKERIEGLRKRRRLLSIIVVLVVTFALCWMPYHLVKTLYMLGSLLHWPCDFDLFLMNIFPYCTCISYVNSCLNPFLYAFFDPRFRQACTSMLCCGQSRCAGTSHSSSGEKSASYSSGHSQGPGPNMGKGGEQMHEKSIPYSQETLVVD
Chain of 168 GPCRs (Homo sapiens, UniProt Q96LB2) (Q96LB2 whole entry): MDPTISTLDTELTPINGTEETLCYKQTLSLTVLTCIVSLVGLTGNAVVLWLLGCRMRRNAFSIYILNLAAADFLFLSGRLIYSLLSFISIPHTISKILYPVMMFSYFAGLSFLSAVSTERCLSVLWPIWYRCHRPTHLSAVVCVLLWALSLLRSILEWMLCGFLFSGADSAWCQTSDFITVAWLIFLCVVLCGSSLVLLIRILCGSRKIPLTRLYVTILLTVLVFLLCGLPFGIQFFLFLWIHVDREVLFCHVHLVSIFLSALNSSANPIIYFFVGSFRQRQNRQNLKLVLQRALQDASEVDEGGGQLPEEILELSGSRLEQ
Chain of 168 GPCRs (Homo sapiens, UniProt P14416) (P14416 whole entry): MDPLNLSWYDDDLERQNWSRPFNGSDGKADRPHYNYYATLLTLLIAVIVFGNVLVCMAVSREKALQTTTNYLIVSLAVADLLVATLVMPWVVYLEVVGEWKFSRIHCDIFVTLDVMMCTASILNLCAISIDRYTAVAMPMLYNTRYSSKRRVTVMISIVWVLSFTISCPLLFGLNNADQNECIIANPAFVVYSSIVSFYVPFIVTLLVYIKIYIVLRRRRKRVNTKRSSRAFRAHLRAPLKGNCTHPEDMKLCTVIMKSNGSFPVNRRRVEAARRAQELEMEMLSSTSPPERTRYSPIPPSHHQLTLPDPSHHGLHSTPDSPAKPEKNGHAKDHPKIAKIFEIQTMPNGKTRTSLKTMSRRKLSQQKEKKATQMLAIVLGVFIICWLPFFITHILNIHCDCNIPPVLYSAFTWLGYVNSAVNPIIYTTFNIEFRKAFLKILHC
Chain of 168 GPCRs (Homo sapiens, UniProt P21728) (P21728 whole entry): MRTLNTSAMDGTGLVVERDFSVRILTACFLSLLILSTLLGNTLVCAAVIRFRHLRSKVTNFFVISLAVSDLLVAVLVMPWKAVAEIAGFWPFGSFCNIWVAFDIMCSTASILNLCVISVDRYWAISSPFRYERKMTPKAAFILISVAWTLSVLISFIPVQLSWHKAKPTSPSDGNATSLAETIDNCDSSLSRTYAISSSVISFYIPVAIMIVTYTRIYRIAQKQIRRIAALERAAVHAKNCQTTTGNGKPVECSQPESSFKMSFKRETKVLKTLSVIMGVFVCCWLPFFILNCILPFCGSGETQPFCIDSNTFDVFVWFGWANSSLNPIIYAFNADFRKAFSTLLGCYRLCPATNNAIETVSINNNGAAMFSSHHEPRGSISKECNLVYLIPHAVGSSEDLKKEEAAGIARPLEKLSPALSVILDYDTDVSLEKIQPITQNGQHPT
Chain of 168 GPCRs (Homo sapiens, UniProt O95838) (O95838 whole entry): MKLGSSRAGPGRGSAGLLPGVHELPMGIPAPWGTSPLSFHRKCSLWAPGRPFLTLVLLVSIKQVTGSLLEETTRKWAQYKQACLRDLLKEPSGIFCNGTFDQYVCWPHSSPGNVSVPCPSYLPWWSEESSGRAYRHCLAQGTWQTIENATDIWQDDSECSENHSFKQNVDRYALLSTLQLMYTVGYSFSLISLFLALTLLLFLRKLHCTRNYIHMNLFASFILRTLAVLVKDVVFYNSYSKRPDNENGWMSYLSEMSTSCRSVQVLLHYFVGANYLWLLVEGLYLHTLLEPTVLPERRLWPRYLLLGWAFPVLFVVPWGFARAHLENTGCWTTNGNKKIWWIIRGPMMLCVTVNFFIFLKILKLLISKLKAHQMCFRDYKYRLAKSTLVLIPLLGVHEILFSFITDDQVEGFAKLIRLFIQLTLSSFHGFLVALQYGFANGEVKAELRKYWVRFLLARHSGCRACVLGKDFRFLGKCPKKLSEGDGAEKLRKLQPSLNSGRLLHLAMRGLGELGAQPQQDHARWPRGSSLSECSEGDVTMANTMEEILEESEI
Chain of 168 GPCRs (Homo sapiens, UniProt Q9HC97) (Q9HC97 whole entry): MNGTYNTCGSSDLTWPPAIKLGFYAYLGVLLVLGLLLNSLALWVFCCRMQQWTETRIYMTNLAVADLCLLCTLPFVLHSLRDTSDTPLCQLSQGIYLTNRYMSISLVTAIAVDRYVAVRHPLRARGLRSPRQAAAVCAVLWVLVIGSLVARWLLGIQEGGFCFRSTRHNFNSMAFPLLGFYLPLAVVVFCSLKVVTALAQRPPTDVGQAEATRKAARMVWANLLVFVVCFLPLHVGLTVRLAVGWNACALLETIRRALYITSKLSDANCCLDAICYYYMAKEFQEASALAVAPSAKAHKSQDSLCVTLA
Chain of 168 GPCRs (Homo sapiens, UniProt P21452) (P21452 whole entry): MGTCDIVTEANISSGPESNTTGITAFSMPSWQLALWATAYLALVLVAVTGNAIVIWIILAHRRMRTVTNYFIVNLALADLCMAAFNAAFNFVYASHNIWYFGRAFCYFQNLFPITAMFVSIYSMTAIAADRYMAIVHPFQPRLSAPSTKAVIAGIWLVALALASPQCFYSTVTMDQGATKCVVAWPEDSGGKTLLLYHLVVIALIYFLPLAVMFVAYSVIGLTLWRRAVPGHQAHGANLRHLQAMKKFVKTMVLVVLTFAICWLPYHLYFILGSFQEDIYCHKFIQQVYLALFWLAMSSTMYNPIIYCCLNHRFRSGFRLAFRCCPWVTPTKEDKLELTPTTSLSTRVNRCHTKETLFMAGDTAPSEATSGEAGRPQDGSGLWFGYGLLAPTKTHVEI
Chain of 168 GPCRs (Homo sapiens, UniProt P08913) (P08913 whole entry): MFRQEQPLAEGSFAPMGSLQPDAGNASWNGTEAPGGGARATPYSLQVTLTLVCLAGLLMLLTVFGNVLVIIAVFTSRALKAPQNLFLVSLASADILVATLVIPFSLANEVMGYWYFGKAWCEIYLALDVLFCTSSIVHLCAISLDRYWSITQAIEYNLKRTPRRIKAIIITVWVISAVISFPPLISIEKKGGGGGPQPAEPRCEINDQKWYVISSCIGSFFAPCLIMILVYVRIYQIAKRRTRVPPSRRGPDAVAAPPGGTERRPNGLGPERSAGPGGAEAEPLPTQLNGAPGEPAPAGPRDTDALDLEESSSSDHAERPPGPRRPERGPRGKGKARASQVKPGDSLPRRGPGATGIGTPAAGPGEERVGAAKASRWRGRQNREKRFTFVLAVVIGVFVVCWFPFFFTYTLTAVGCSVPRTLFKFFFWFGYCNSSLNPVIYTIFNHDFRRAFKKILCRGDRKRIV
Chain of 168 GPCRs (Homo sapiens, UniProt P08908) (P08908 whole entry): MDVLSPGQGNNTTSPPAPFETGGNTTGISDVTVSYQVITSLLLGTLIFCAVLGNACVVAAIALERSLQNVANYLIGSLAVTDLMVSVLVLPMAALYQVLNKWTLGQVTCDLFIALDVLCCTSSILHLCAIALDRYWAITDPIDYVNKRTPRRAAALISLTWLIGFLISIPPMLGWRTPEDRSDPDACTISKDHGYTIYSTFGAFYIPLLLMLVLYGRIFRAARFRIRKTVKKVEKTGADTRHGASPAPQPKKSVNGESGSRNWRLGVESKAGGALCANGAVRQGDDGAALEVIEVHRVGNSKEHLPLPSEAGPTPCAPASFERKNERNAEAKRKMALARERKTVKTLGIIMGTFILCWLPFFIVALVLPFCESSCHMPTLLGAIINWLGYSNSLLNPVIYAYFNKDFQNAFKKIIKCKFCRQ
Chain of 168 GPCRs (Homo sapiens, UniProt Q15077) (Q15077 whole entry): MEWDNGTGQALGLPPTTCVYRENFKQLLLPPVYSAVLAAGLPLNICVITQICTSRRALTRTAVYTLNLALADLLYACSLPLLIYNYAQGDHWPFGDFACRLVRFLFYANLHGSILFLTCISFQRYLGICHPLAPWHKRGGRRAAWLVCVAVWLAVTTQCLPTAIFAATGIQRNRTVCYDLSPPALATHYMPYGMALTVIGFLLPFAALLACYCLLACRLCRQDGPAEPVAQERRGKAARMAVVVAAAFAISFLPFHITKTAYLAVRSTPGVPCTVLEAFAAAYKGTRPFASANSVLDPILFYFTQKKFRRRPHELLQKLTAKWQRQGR
Chain of 168 GPCRs (Homo sapiens, UniProt P43119) (P43119 whole entry): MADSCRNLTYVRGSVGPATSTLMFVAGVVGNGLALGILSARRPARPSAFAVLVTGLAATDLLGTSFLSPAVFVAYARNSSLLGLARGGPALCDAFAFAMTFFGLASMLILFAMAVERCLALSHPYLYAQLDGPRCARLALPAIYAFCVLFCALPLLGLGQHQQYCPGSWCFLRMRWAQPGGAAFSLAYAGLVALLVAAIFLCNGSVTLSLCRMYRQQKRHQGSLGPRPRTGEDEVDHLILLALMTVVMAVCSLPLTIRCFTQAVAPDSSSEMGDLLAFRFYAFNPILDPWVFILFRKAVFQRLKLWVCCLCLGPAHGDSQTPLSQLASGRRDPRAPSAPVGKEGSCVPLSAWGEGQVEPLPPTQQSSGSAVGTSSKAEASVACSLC

Compound: CNC(C)C(=O)c1ccc2c(c1)OCO2 (stereo not drawn) [methylone, 3,4-methylenedioxy-N-methylcathinone]
- activity at 1 µM (168 GPCRs [1]; CALCRL-RAMP1, read-out: % Activity): -2.6%
- activity at 10 µM (168 GPCRs [1]; CALCRL-RAMP1): -0.2%
- activity at 1 µM (168 GPCRs [1]; CALCRL-RAMP2): 0.1%
- activity at 10 µM (168 GPCRs [1]; CALCRL-RAMP2): 2.8%
- activity at 1 µM (168 GPCRs [1]; CALCRL-RAMP3, read-out: % Activity): -2.2%
- activity at 10 µM (168 GPCRs [1]; CALCRL-RAMP3): 2.2%
- activity at 10 µM (168 GPCRs [2]; Agonist mode, 10 uM): -0.1%
- activity at 1 µM (168 GPCRs [2]; Agonist, 1 uM): 0.7%
- activity at 10 µM (168 GPCRs [3]; Agonist mode, 10 uM): -0.1%
- activity at 1 µM (168 GPCRs [3]; Agonist, 1 uM): -0.3%
- activity at 1 µM (168 GPCRs [4]; 1 uM): -0.2%
- activity at 10 µM (168 GPCRs [4]; 10 uM): 0.2%
- activity at 10 µM (168 GPCRs [5]; MRGPRX1, Agonist mode, 10 uM): -1.5%
- activity at 1 µM (168 GPCRs [5]; MRGPRX1, Agonist, 1 uM): -1.7%
- activity at 10 µM (168 GPCRs [6]; Agonist mode, 10 uM): -2.3%
- activity at 1 µM (168 GPCRs [6]; Agonist, 1 uM): -4.4%
- activity at 10 µM (168 GPCRs [7]; DRD1, Agonist mode, 10 uM): -1.6%
- activity at 1 µM (168 GPCRs [7]; DRD1, Agonist, 1 uM): -1.6%
- activity at 10 µM (168 GPCRs [8]; Agonist mode, 10 uM): -2.2%
- activity at 1 µM (168 GPCRs [8]; Agonist, 1 uM): -2%
- activity at 1 µM (168 GPCRs [9]; 1 uM): -3.8%
- activity at 10 µM (168 GPCRs [9]; 10 uM): -3.8%
- activity at 10 µM (168 GPCRs [10]; Agonist mode, 10 uM): 0.7%
- activity at 1 µM (168 GPCRs [10]; Agonist, 1 uM): 0.1%
- activity at 10 µM (168 GPCRs [11]; Agonist mode, 10 uM): -13%
- activity at 1 µM (168 GPCRs [11]; Agonist, 1 uM): -1.5%
- activity at 1 µM (168 GPCRs [12]; 1 uM): -0.9%
- activity at 10 µM (168 GPCRs [12]; 10 uM): -1.5%
- activity at 10 µM (168 GPCRs [13]; Agonist mode, 10 uM): -2.6%
- activity at 1 µM (168 GPCRs [13]; Agonist, 1 uM): -1.3%
- activity at 10 µM (168 GPCRs [14]; P2RY6, Agonist mode, 10 uM): 2.4%
- activity at 1 µM (168 GPCRs [14]; P2RY6, Agonist, 1 uM): 4.5%
- activity at 1 µM (168 GPCRs [15]; 1 uM): -4%
- activity at 10 µM (168 GPCRs [15]; 10 uM): -3%
- activity at 10 µM (168 GPCRs [16]; TACR2, Agonist mode, 10 uM): -3.3%
- activity at 1 µM (168 GPCRs [16]; TACR2, Agonist, 1 uM): -1.9%
- activity at 10 µM (168 GPCRs [17]; GPR35, Agonist mode, 10 uM): 2.5%
- activity at 1 µM (168 GPCRs [17]; GPR35, Agonist, 1 uM): 2.2%
- activity at 10 µM (168 GPCRs [18]; Agonist mode, 10 uM): -0.1%
- activity at 1 µM (168 GPCRs [18]; Agonist, 1 uM): 0.8%
- activity at 10 µM (168 GPCRs [19]; PROKR2, Agonist mode, 10 uM): -0.6%
- activity at 1 µM (168 GPCRs [19]; PROKR2, Agonist, 1 uM): -0.6%
